Experimental findings from publication PMC6017655, “In Silico and in Vitro-Guided Identification of Inhibitors of Alkylquinolone-Dependent Quorum Sensing in Pseudomonas aeruginosa” (Molecules : A Journal of Synthetic Chemistry and Natural …, 2018) are described below.

Common to all, as to assay type: cell-based, Pseudomonas aeruginosa
In assay [1] the test system is PqsR (pqsA promoter, PAO1-L mCTX::PpqsA-lux). Description: Whole cell biosensor reporter assay, PAO1-L mCTX::PpqsA-lux. The conditions noted are these: Pseudomonas aeruginosa, PAO1, read-out: PAO1-L Remaining Activity %. The method, then:
(§1) To determine the ability of the quinolines to inhibit PqsR functionality, the P. aeruginosa biosensor strains, PAO1-L and PA14, incorporating a chromosomal mCTX::PpqsA-lux transcriptional fusion, were used. These report on the activation of the pqsA promoter, regulated by PqsR [25]. PAO1-L and PA14 were chosen because they are genetically amenable and belong to the two major P. aeruginosa genomic groups. The quinolone compounds were incubated with the corresponding strain, and luminescence and optical density readings were recorded to monitor the effect of the quinolines on PqsR activity and bacterial growth, respectively. The compounds were screened at 10 µM concentration, and the activity was compared to a control of DMSO (0.1%) (Figure 3a). To be considered a hit, a threshold of at least 50% inhibition of the test compound, relative to the negative control had to be reached, without affecting bacterial growth. […] Concentration-response experiments were then carried out to determine the IC50 values (Figure 3b,c), which are summarised in Table 1.
(§2) Strains PA14 mCTX::PpqsA-lux and PAO1-L mCTX::PpqsA-lux were constructed using plasmid mini-CTX::PpqsA-lux, as previously described, and the assay was performed according to a published protocol. For screening, the compounds were tested at a concentration of 10 µM, which was prepared from a 10 mM stock, in DMSO.
On the technique in general: A reporter such as luciferase makes a cellular process visible.

Assay [2] relates to PqsR (pqsA promoter, PA14 mCTX::PpqsA-lux). Nature of the assay: Whole cell biosensor reporter assay, PA14 mCTX::PpqsA-lux. The following applies: Pseudomonas aeruginosa, PA14, read-out: PA14 Remaining Activity %. The method, then: as §1, §2
In a further assay the test system is PAO1-L biofilms. Description: Biofilm assay on glass coverslips, GFP-labelled PAO1-L. The following applies: Ia 34 µM; tobramycin 100 µg/mL for 4 h. The method, then: (§3) One of the clinical challenges of P. aeruginosa infections is the difficulty associated with the effective treatment of biofilms due to their high resistance to antibiotics. […] The effect of Ia, with or without tobramycin, on PA14 and PAO1-L biofilms grown on glass coverslips, was determined. […] The experiment was performed using green fluorescent labelled (GFP)-labelled PAO1-L and PA14 strains, grown under four different conditions: (i) no treatment (control); (ii) compound Ia at 8 µM in PA14 and 34 µM in PAO1-L (concentrations equal to 3× IC50); (iii) tobramycin at 100 µg/mL; (iv) Ia and tobramycin, at the same concentrations as (ii) and (iii).
(§4) Biofilms were cultivated on borosilicate glass coverslips in petri dishes. P. aeruginosa strains, PAO1-L and PA14, were labelled by transformation with plasmid pMMG, which constitutively expresses GFP from the Ptac promoter. Labelled strains were grown at 37 °C, for 16 h, in 2 mL RPMI-1640 (Lonza, Slough, UK), supplemented with 20 mM D-glucose (Sigma–Aldrich, Dorset, UK) and 2 µM FeCl3 (Sigma–Aldrich, Dorset, UK). Cultures were diluted 1:100 in fresh medium and allowed to grow for a further 4 h, or until an OD600 of 0.5 was reached. The mid-logarithmic cultures were diluted to an OD600 of 0.01 in 25 mL RPMI, supplemented with glucose and FeCl3, and inoculated into petri dishes containing UV sterilised borosilicate glass coverslips (22 × 22 mm, thickness no1) (VWR, Lutterworth, UK). Bacterial cells were seeded at 37 °C under static conditions for 1.5 h, and compound Ia was added to the culture at a concentration of 34 µM for P. aeruginosa PAO1-L and 8 µM for PA14 before dishes were moved to a shaker at 60 rpm and 37 °C for 15 h to form mature biofilms. Tobramycin and propidium iodide were added to the 15 h-old cultures at concentrations of 100 µg/mL and 2 µM, respectively, followed by further incubation for 4 h. Coverslips were examined under a Laser Scanning Fluorescent Microscope (LSM2, Zeiss, Oberkochen, Germany). Biofilms were visualised using egfp mode at an excitation wavelength of 488nm. Imaging was carried out using Zen 2011 imaging software (Zeiss, Oberkochen, Germany). A total of 5 Z-stacked images were collected per coverslip. Sampling was conducted at random from the central portion of each coverslip. Biomass was calculated using Image J (NIH, Bethesda, MD, USA) and Comstat 2.1. Software package (www.comstat.dk, lyngby, Denmark).

Another assay relates to PA14 biofilms. Description: Biofilm assay on glass coverslips, GFP-labelled PA14. The conditions noted are these: Ia 8 µM; tobramycin 100 µg/mL for 4 h. The method, then: as §3, §4

Regarding `O=CN1N=C(c2ccc(Br)cc2)CC1c1cccc(Nc2ccnc3cc(C(F)(F)F)ccc23)c1` (stereo not shown) [Io], the activity at 10 µM in assay [1] stood at 68.5 ± 3.43%; in assay [2] it was 80.6 ± 6.26%.
On to `COc1ccc(C2=NN(C(C)=O)C(c3cccc(Nc4ccnc5cc(C(F)(F)F)ccc45)c3)C2)cc1` (stereo not shown) [IIk], for which the activity at 10 µM in assay [1] came to 66.7 ± 0.42%; in assay [2] it was 118 ± 5.97%.
Regarding `CC(=O)N1N=C(c2ccc(Cl)cc2)CC1c1cccc(Nc2ccnc3cc(C(F)(F)F)ccc23)c1` (stereo not shown) [IIn], the activity at 10 µM in assay [1] is 97.8 ± 5.52%; in assay [2], 98.1 ± 11.4%.
In the case of `O=CN1N=C(c2ccc(F)cc2)CC1c1cccc(Nc2ccnc3cc(Cl)ccc23)c1` (stereo not shown) [Ie], the figures for the activity at 10 µM in assay [1] and in assay [2] were 40.6 ± 3.71% and 70.4 ± 6.53%, respectively.
For `O=CN1N=C(c2ccc(Cl)cc2)CC1c1cccc(Nc2ccnc3cc(C(F)(F)F)ccc23)c1` (stereo not shown) [In], the results for the activity at 10 µM in assay [1] and in assay [2] were 61.8 ± 3.97% and 93.6 ± 4.45%, respectively.
For `COc1cc(C2=NN(C(C)=O)C(c3cccc(Nc4ccnc5cc(Cl)ccc45)c3)C2)cc(OC)c1OC` (stereo not shown) [IId], in that order: 127 ± 9.69% and 110 ± 1.6%.
For `CC(=O)N1N=C(c2ccc(C)cc2)CC1c1cccc(Nc2ccnc3cc(Cl)ccc23)c1` (stereo not shown) [IIb], the activity at 10 µM in assay [1] was 59.5 ± 1.86%; in assay [2], 96.2 ± 4.34%.
In the case of `COc1cc(C2=NN(C=O)C(c3cccc(Nc4ccnc5cc(Cl)ccc45)c3)C2)cc(OC)c1OC` (stereo not shown) [Id], the values for the activity at 10 µM in assay [1] and in assay [2] were 130 ± 5.04% and 110 ± 15%, respectively.
Regarding `CC(=O)N1N=C(c2ccc(Br)cc2)CC1c1cccc(Nc2ccnc3cc(C(F)(F)F)ccc23)c1` (stereo not shown) [IIo], the results for the activity at 10 µM in assay [1] and in assay [2] were 80.8 ± 5.06% and 95.6 ± 9.58%, respectively.
Turning to `NC[C@H]1O[C@H](O[C@H]2[C@H](O)[C@@H](O[C@H]3O[C@H](CO)[C@@H](O)[C@H](N)[C@H]3O)[C@H](N)C[C@@H]2N)[C@H](N)C[C@@H]1O` [tobramycin, reference compound], in the assay with PAO1-L biofilms, the “Effect on biofilm biomass, PAO1-L” value is given as “significantly reduced biofilm biomass” and the “Effect on cell viability in biofilm (propidium iodide), PAO1-L” value is given as “increasing the proportion of dead bacterial cells substantially”. For the same compound, in the assay on PA14 biofilms, the “Effect on biofilm biomass, PA14” value was “significantly reduced biofilm biomass” and the “Effect on cell viability in biofilm (propidium iodide), PA14” value was “increasing the proportion of dead bacterial cells substantially”.
`O=CN1N=C(c2ccc(Br)cc2)CC1c1cccc(Nc2ccnc3cc(Cl)ccc23)c1` (stereo not shown) [Ig]: the figures for the activity at 10 µM in assay [1] and in assay [2] were 88.1 ± 6.05% and 94.8 ± 8.91%, respectively.
With `O=CN1N=C(c2ccc(F)cc2)CC1c1cccc(Nc2ccnc3cc(C(F)(F)F)ccc23)c1` (stereo not shown) [Im], the activity at 10 µM in assay [1] was 65.1 ± 4.89%; in assay [2], 74.9 ± 8.28%.
Regarding `COc1cc(C2=NN(C=O)C(c3cccc(Nc4ccnc5cc(C(F)(F)F)ccc45)c3)C2)cc(OC)c1OC` (stereo not shown) [Il], the activity at 10 µM in assay [1] was 85.8 ± 2.39%; in assay [2], 106 ± 15.3%.
For `Cc1ccc(C2=NN(C=O)C(c3cccc(Nc4ccnc5cc(Cl)ccc45)c3)C2)cc1` (stereo not shown) [Ib], in that order: 77 ± 2.25% and 78.4 ± 6.51%.
As to `CC(=O)N1N=C(c2ccc3c(c2)OCO3)CC1c1cccc(Nc2ccnc3cc(Cl)ccc23)c1` (stereo not shown) [IIh], the activity at 10 µM in assay [1] worked out at 65.8 ± 5.63%; in assay [2], 115 ± 6.02%.
With `COc1ccc(C2=NN(C=O)C(c3cccc(Nc4ccnc5cc(Cl)ccc45)c3)C2)cc1` (stereo not shown) [Ic], the activity at 10 µM was found to be 100 ± 8.46% in assay [1] and 102 ± 11.7% in assay [2].
The like results for `CC(=O)N1N=C(c2ccc(F)cc2)CC1c1cccc(Nc2ccnc3cc(C(F)(F)F)ccc23)c1` (stereo not shown) [IIm] were, in that order, 90.2 ± 4.4% and 99.9 ± 3.17%.
For the compound `O=CN1N=C(c2ccc3c(c2)OCO3)CC1c1cccc(Nc2ccnc3cc(Cl)ccc23)c1` (stereo not shown) [Ih], the activity at 10 µM turned out to be 49.9 ± 12% in assay [1] and 85.8 ± 9.42% in assay [2].
As for `CC(=O)N1N=C(c2ccc(F)cc2)CC1c1cccc(Nc2ccnc3cc(Cl)ccc23)c1` (stereo not shown) [IIe], the activity at 10 µM in assay [1] is 82.6 ± 22.7%; in assay [2], 120 ± 1.59%.
Regarding `CC(=O)N1N=C(c2ccc3c(c2)OCO3)CC1c1cccc(Nc2ccnc3cc(C(F)(F)F)ccc23)c1` (stereo not shown) [IIp], the results for the activity at 10 µM in assay [1] and in assay [2] were 71.6 ± 5.07% and 99.6 ± 4.09%, respectively.
Regarding `COc1ccc(C2=NN(C=O)C(c3cccc(Nc4ccnc5cc(C(F)(F)F)ccc45)c3)C2)cc1` (stereo not shown) [Ik], the values for the activity at 10 µM in assay [1] and in assay [2] were 78.6 ± 5.75% and 99.7 ± 9.37%, respectively.
For `CC(=O)N1N=C(c2ccc(C)cc2)CC1c1cccc(Nc2ccnc3cc(C(F)(F)F)ccc23)c1` (stereo not shown) [IIj], in that order: 97.3 ± 6.46% and 108 ± 6.05%.
`COc1cc(C2=NN(C(C)=O)C(c3cccc(Nc4ccnc5cc(C(F)(F)F)ccc45)c3)C2)cc(OC)c1OC` (stereo not shown) [IIl]: the activity at 10 µM amounted to 86.1 ± 2.39% in assay [1] and 103 ± 4.84% in assay [2].
For `CC(=O)N1N=C(c2ccc(Cl)cc2)CC1c1cccc(Nc2ccnc3cc(Cl)ccc23)c1` (stereo not shown) [IIf], in that order: 90.2 ± 3.84% and 103 ± 4.91%.
The like results for `COc1ccc(C2=NN(C(C)=O)C(c3cccc(Nc4ccnc5cc(Cl)ccc45)c3)C2)cc1` (stereo not shown) [IIc] were, in that order, 120 ± 8.28% and 115 ± 2.13%.
The like results for `O=CN1N=C(c2ccc3c(c2)OCO3)CC1c1cccc(Nc2ccnc3cc(C(F)(F)F)ccc23)c1` (stereo not shown) [Ip] were, in that order, 84.3 ± 5.48% and 81.4 ± 9.36%.
As for `Cc1ccc(C2=NN(C=O)C(c3cccc(Nc4ccnc5cc(C(F)(F)F)ccc45)c3)C2)cc1` (stereo not shown) [Ij], the activity at 10 µM in assay [1] was determined as 93.7 ± 6.15%; in assay [2], 84.9 ± 8.17%.
For `CC(=O)N1N=C(c2ccc(Br)cc2)CC1c1cccc(Nc2ccnc3cc(Cl)ccc23)c1` (stereo not shown) [IIg], in that order: 63.7 ± 5.01% and 109 ± 2.79%.
